In ChEMBL document CHEMBL4311997, “Discovery of a potent histone deacetylase (HDAC) 3/6 selective dual inhibitor” (Eur J Med Chem, 2019):
The source made the active and inactive calls. No cut-off for these calls is given here.

Tests used:
OPM-2 = assay: Antiproliferative activity against human OPM2 cells incubated for 48 hrs by CellTiter-Glo luminescent cell viability assay; format: functional, cell-based; conditions: OPM-2, 48 h
Histone deacetylase 1 = Histone deacetylase 1 (Homo sapiens, UniProt Q13547)
Sequence of Histone deacetylase 1 (Q13547 whole entry): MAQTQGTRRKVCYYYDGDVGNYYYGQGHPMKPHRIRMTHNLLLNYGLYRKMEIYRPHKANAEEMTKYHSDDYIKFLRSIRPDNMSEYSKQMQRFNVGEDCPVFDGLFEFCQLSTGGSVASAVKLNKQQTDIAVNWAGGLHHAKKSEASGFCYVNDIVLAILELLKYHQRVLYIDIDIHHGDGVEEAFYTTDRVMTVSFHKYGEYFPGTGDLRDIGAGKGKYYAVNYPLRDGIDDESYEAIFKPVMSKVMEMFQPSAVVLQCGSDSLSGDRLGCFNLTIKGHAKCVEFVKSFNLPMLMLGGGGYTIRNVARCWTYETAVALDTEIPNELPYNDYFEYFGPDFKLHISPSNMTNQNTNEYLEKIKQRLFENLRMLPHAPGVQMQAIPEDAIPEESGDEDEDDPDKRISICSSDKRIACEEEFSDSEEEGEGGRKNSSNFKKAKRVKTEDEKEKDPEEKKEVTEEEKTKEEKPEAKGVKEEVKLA
Description: Inhibition of human HDAC1 using Arg-His-Lys-Lys (Ac) as substrate incubated for 2 hrs by fluorescence assay

[1] = target: T1, Protein deacetylase HDAC6 (Homo sapiens, UniProt Q9UBN7); assay: Inhibition of human HDAC6 using Arg-His-Lys-Lys (Ac) as substrate incubated for 2 hrs by fluorescence assay
T1 sequence (Q9UBN7 whole entry): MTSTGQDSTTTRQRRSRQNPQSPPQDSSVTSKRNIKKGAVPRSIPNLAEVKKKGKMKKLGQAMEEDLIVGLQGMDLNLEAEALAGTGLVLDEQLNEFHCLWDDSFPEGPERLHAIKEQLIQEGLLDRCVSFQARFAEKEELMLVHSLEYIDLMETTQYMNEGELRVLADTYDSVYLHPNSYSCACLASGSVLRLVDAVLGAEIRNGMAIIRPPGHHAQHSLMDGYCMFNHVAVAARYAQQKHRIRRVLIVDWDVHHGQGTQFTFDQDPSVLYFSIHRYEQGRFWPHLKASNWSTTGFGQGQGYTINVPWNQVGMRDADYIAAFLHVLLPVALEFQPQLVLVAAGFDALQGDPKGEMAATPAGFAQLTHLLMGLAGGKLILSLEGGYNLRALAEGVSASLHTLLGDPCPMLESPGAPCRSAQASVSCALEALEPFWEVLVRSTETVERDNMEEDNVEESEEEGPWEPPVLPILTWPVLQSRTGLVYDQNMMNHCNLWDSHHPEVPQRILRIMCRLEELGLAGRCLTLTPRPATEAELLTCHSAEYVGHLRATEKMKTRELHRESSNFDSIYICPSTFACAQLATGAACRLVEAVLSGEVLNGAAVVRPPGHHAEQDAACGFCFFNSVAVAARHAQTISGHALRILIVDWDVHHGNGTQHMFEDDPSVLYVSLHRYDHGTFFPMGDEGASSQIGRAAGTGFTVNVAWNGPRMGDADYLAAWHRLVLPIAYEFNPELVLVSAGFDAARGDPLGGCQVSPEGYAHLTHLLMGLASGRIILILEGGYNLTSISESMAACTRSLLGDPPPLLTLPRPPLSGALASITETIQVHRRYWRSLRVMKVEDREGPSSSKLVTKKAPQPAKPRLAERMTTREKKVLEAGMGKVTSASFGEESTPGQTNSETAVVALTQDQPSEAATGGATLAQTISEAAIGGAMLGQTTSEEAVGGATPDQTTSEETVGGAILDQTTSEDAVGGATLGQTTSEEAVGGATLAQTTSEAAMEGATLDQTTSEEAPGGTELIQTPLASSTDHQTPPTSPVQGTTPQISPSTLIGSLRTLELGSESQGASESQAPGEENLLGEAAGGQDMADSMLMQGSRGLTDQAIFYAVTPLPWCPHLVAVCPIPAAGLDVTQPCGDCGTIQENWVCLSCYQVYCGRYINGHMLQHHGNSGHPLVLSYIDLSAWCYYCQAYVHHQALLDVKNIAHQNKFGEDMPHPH

MCF7 = assay: Antiproliferative activity against human MCF7 cells incubated for 72 hrs by MTT assay; format: functional, cell-based; conditions: MCF7, 72 h
MDA-MB-231 [2] = assay: Antiproliferative activity against human MDA-MB-231 cells incubated for 72 hrs by MTT assay; format: functional, cell-based; conditions: MDA-MB-231, 72 h
MDA-MB-231 [3] = assay: Induction of apoptosis in human MDA-MB-231 cells assessed as late apoptotic cells at 1 uM incubated for 48 hrs by Annexin V-FITC/PI staining by flow cytometric analysis (reference value: 3%); format: functional
MDA-MB-231 [4] = assay: Induction of apoptosis in human MDA-MB-231 cells assessed as early apoptotic cells at 1 uM incubated for 48 hrs by Annexin V-FITC/PI staining by flow cytometric analysis (reference value: 5%); format: functional
MDA-MB-231 [5] = assay: Induction of apoptosis in human MDA-MB-231 cells assessed as necrotic cells at 1 uM incubated for 48 hrs by Annexin V-FITC/PI staining by flow cytometric analysis (reference value: 15%); format: functional
MDA-MB-231 [6] = assay: Induction of apoptosis in human MDA-MB-231 cells assessed as viable cells at 1 uM incubated for 48 hrs by Annexin V-FITC/PI staining by flow cytometric analysis (reference value: 77%); format: functional; conditions: MDA-MB-231, 48 h, read-out: Activity
Plasmodium falciparum [7] = assay: microbe, parasite or virus in culture; format: functional, organism-based; conditions: K1, 48 h
Description: Antimalarial activity against ring stage Plasmodium falciparum K1 incubated for 48 hrs by Hoechst 33342 staining based fluorescence based assay

[8] = Selectivity index, ratio of EC50 for human MDA-MB-231 cells to IC50 for ring stage Plasmodium falciparum K1; format: functional; set-up: reference not given here
[9] = Selectivity index, ratio of EC50 for human MDA-MB-231 cells to IC50 for ring stage Plasmodium falciparum 3D7; format: functional; set-up: reference not given here
[10] = target: Protein deacetylase HDAC6 (Homo sapiens) (UniProt Q9UBN7); assay: Potency index, ratio of IC50 for vorinostat to IC50 for test compound for human HDAC6
Plasmodium falciparum [11] = assay: microbe, parasite or virus in culture; format: functional, organism-based; conditions: 3D7, 48 h
Description: Antimalarial activity against ring stage Plasmodium falciparum 3D7 incubated for 48 hrs by Hoechst 33342 staining based fluorescence based assay

[12] = target: Histone deacetylase 1/2/3 (Homo sapiens, UniProt Q13547+O15379+Q92769); assay: Inhibition of HDAC1/2/3 in human KMS-12-BM cells assessed as increase in Ac-H3 level at 2 to 10 uM incubated for 24 hrs by Western blot analysis; format: cell-based
KMS-12-BM = assay: Effect on human KMS-12-BM cells assessed as inhibition in H3K9Me2 level at 2 to 10 uM incubated for 24 hrs by Western blot analysis; format: functional, cell-based

| SMILES | IC50 (Histone deacetylase 1) [nM] | IC50 [1] [nM] | EC50 (MCF7) [nM] | EC50 (MDA-MB-231 [2]) [nM] | IC50 (Plasmodium falciparum [7]) [nM] | Selectivity Index [8] | Selectivity Index [9] | IC50 (Plasmodium falciparum [11]) [nM] | other results |
| --- | --- | --- | --- | --- | --- | --- | --- | --- | --- |
| O=C(CCCCCCC(=O)Nc1ccccc1)NO [VORINOSTAT] | – | – | – | – | – | – | – | – | EC50 (OPM-2): 2900 nM |
| COc1cc2nc(N3CCN(C(=O)CCCCCCC(=O)NO)CC3)nc(NC3CCN(Cc4ccccc4)CC3)c2cc1OC | 3080 | 35.5 | 7700 | 7000 | – | – | – | – | – |
| COc1cccc2c1C(=O)c1c(O)c3c(c(O)c1C2=O)C[C@@](O)(C(=O)CO)C[C@@H]3O[C@H]1C[C@H](N)[C@H](O)[C@H](C)O1 [DOXORUBICIN] | – | – | – | – | – | – | – | – | Activity (MDA-MB-231 [3]): 92%; Activity (MDA-MB-231 [4]): 1%; Activity (MDA-MB-231 [5]): 6%; viability at 1 µM (MDA-MB-231 [6]): 1% |
| COc1cc2nc(Nc3ccc(NC(=O)CCCCCCC(=O)NO)cc3)nc(NC3CCN(Cc4ccccc4)CC3)c2cc1OC | 1030 | < 0.5 | 12000 | 5100 | 878 | 6 | 26 | 200 | Ratio IC50 [10]: 40 |
| COc1cc2nc(N3CCCN(C)CC3)nc(NC3CCN(Cc4ccccc4)CC3)c2cc1OC | – | – | 3300 | 2900 | – | – | – | 152 | inhibition [12]: inactive; Activity (KMS-12-BM): Active |
| O=C(CCCCCCC(=O)Nc1ccc(Nc2nc(NC3CCN(Cc4ccccc4)CC3)c3sccc3n2)cc1)NO | 233 | 5.9 | 2900 | 2900 | – | – | – | – | – |
| COc1cc2nc(Nc3ccc(NC(=O)CCCCCCC(=O)NO)cc3)nc(NC3CCN(Cc4ccccc4Cl)CC3)c2cc1OC | 3370 | 9.09 | 4900 | 4100 | 489 | 8 | 43 | 96 | – |
| COc1cc2nc(Nc3ccc(NC(=O)CCCCCCC(=O)NO)cc3)nc(NC3CCN(Cc4ccc(F)cc4)CC3)c2cc1OC | 2150 | 7.98 | 4900 | 4900 | 296 | 17 | 44 | 111 | – |
